Source: ChEMBL document CHEMBL4190322, “Structure-based development of novel triazoles and related thiazolotriazoles as anticancer agents and Cdc25A/B phosphatase inhibitors. Synthesis, in vitro biological evaluation, molecular docking and in silico ADME-T studies” (Eur J Med Chem, 2017)
Calls of active or inactive are those of the source. The rule behind the calls is not given here.

How the values were obtained:
Format in all cases: functional
MOLT-4 = assay: Growth inhibition of human MOLT4 cells at 10 uM after 48 hrs by SRB assay relative to control; conditions: MOLT-4, 48 h, read-out: GI
A549 = assay: Growth inhibition of human A549 cells at 10 uM after 48 hrs by SRB assay relative to control; conditions: A549, 48 h, read-out: GI
K562 = assay: Growth inhibition of human K562 cells at 10 uM after 48 hrs by SRB assay relative to control; conditions: K562, 48 h, read-out: GI
NCI-H226 = assay: Growth inhibition of human NCI-H226 cells at 10 uM after 48 hrs by SRB assay relative to control; conditions: NCI-H226, 48 h, read-out: GI
HCT-116 = assay: Growth inhibition of human HCT116 cells at 10 uM after 48 hrs by SRB assay relative to control
NCI-H522 = assay: Growth inhibition of human NCI-H522 cells at 10 uM after 48 hrs by SRB assay relative to control; conditions: NCI-H522, 48 h, read-out: GI
HOP-62 = assay: Growth inhibition of human HOP62 cells at 10 uM after 48 hrs by SRB assay relative to control; conditions: for inhibition of growth at 10 µM: HOP-62, 48 h, read-out: GI
UACC-257 = assay: Growth inhibition of human UACC257 cells at 10 uM after 48 hrs by SRB assay relative to control; conditions: for inhibition of growth at 10 µM: UACC-257, 48 h, read-out: GI
RPMI-8226 = assay: Growth inhibition of human RPMI8226 cells at 10 uM after 48 hrs by SRB assay relative to control; conditions: for inhibition of growth at 10 µM: RPMI-8226, 48 h, read-out: GI
Malme-3M = assay: Growth inhibition of human MALME-3M cells at 10 uM after 48 hrs by SRB assay relative to control; conditions: for inhibition of growth at 10 µM: read-out: GI
HOP-92 = assay: Growth inhibition of human HOP92 cells at 10 uM after 48 hrs by SRB assay relative to control; conditions: HOP-92, 48 h, read-out: GI
HL-60 = assay: Growth inhibition of human HL60 cells at 10 uM after 48 hrs by SRB assay relative to control
CAKI-1 = assay: Growth inhibition of human Caki1 cells at 10 uM after 48 hrs by SRB assay relative to control; conditions: CAKI-1, 48 h, read-out: GI
A498 = assay: Growth inhibition of human A498 cells at 10 uM after 48 hrs by SRB assay relative to control; conditions: A498, 48 h, read-out: GI
SK-MEL-2 = assay: Growth inhibition of human SK-MEL-2 cells at 10 uM after 48 hrs by SRB assay relative to control; conditions: for inhibition of growth at 10 µM: SK-MEL-2, 48 h, read-out: GI
LOX IMVI = assay: Growth inhibition of human LOXIMVI cells at 10 uM after 48 hrs by SRB assay relative to control; conditions: read-out: GI
SK-MEL-5 = assay: Growth inhibition of human SK-MEL-5 cells at 10 uM after 48 hrs by SRB assay relative to control; conditions: for inhibition of growth at 10 µM: SK-MEL-5, 48 h, read-out: GI
SNB-75 = assay: Growth inhibition of human SNB75 cells at 10 uM after 48 hrs by SRB assay relative to control; conditions: SNB-75, 48 h, read-out: GI
RXF 393 = assay: Growth inhibition of human RXF393 cells at 10 uM after 48 hrs by SRB assay relative to control
HT-29 = assay: Growth inhibition of human HT-29 cells at 10 uM after 48 hrs by SRB assay relative to control
OVCAR-3 = assay: Growth inhibition of human OVCAR3 cells at 10 uM after 48 hrs by SRB assay relative to control
CCRF-CEM = assay: Growth inhibition of human CCRF-CEM cells at 10 uM after 48 hrs by SRB assay relative to control; conditions: read-out: GI
UO-31 = assay: Growth inhibition of human UO31 cells at 10 uM after 48 hrs by SRB assay relative to control; conditions: UO-31, 48 h, read-out: GI
U-251 = assay: Growth inhibition of human U251 cells at 10 uM after 48 hrs by SRB assay relative to control; conditions: U-251, 48 h, read-out: GI
NCI-H322M = assay: Growth inhibition of human NCI-H322M cells at 10 uM after 48 hrs by SRB assay relative to control
UACC-62 = assay: Growth inhibition of human UACC62 cells at 10 uM after 48 hrs by SRB assay relative to control
OVCAR-4 = assay: Growth inhibition of human OVCAR4 cells at 10 uM after 48 hrs by SRB assay relative to control; conditions: OVCAR-4, 48 h, read-out: GI
KM12 = assay: Growth inhibition of human KM12 cells at 10 uM after 48 hrs by SRB assay relative to control; conditions: KM12, 48 h, read-out: GI
SK-OV-3 = assay: Growth inhibition of human SKOV3 cells at 10 uM after 48 hrs by SRB assay relative to control; conditions: for inhibition of growth at 10 µM: SK-OV-3, 48 h, read-out: GI
SR = assay: Growth inhibition of human SR cells at 10 uM after 48 hrs by SRB assay relative to control; conditions: read-out: GI
NCI-H23 = assay: Growth inhibition of human NCI-H23 cells at 10 uM after 48 hrs by SRB assay relative to control; conditions: NCI-H23, 48 h, read-out: GI
PC-3 = assay: Growth inhibition of human PC3 cells at 10 uM after 48 hrs by SRB assay relative to control; conditions: PC-3, 48 h, read-out: GI
MDA-MB-468 = assay: Growth inhibition of human MDA-MB-468 cells at 10 uM after 48 hrs by SRB assay relative to control; conditions: for inhibition of growth at 10 µM: MDA-MB-468, 48 h, read-out: GI
786-0 = assay: Growth inhibition of human 786-0 cells at 10 uM after 48 hrs by SRB assay relative to control
OVCAR-8 = assay: Growth inhibition of human OVCAR8 cells at 10 uM after 48 hrs by SRB assay relative to control
SF-268 = assay: Growth inhibition of human SF268 cells at 10 uM after 48 hrs by SRB assay relative to control; conditions: SF-268, 48 h, read-out: GI
MCF7 = assay: Growth inhibition of human MCF7 cells at 10 uM after 48 hrs by SRB assay relative to control; conditions: MCF7, 48 h, read-out: GI
SNB-19 = assay: Growth inhibition of human SNB19 cells at 10 uM after 48 hrs by SRB assay relative to control; conditions: SNB-19, 48 h, read-out: GI
Hs-578T = assay: Growth inhibition of human Hs 578T cells at 10 uM after 48 hrs by SRB assay relative to control
NCI/ADR-RES = assay: Growth inhibition of human NCI/ADR-RES cells at 10 uM after 48 hrs by SRB assay relative to control; conditions: read-out: GI

SMILES	inhibition of growth at 10 µM (MOLT-4)	inhibition of growth at 10 µM (A549)	inhibition of growth at 10 µM (K562)	inhibition of growth at 10 µM (NCI-H226)	inhibition of growth at 10 µM (NCI-H522)	inhibition of growth at 10 µM (HOP-92)	growth inhibition (GI) (HL-60)	inhibition of growth at 10 µM (CAKI-1)	inhibition of growth at 10 µM (A498)	inhibition of growth at 10 µM (LOX IMVI)	inhibition of growth at 10 µM (SNB-75)	growth inhibition (GI) (RXF 393)	inhibition of growth at 10 µM (CCRF-CEM)	inhibition of growth at 10 µM (UO-31)	inhibition of growth at 10 µM (U-251)	inhibition of growth at 10 µM (OVCAR-4)	inhibition of growth at 10 µM (KM12)	inhibition of growth at 10 µM (SR)	inhibition of growth at 10 µM (NCI-H23)	inhibition of growth at 10 µM (PC-3)	other results
CCSc1nnc(Cc2ccc(OC)cc2)n1-c1ccccc1	10%	5.86%	14.1%	5.31%	22.4%	8.26%	inactive	11.9%	22.1%	4.89%	10%	inactive	7.61%	20%	13%	7.48%	3.07%	3.31%	6.16%	14.3%	growth inhibition (GI) (HCT-116): inactive; inhibition of growth at 10 µM (HOP-62): 2.28%; inhibition of growth at 10 µM (UACC-257): 3.16%; inhibition of growth at 10 µM (RPMI-8226): 13.5%; inhibition of growth at 10 µM (Malme-3M): 9.23%; inhibition of growth at 10 µM (SK-MEL-2): 5%; inhibition of growth at 10 µM (SK-MEL-5): 4.7%; inhibition of growth at 10 µM (HT-29; HT-29, 48 h, read-out: GI): 8.24%; growth inhibition (GI) (OVCAR-3): inactive; growth inhibition (GI) (NCI-H322M): inactive; growth inhibition (GI) (UACC-62): inactive; growth inhibition (GI) (SK-OV-3): inactive; inhibition of growth at 10 µM (MDA-MB-468): 10.7%; growth inhibition (GI) (786-0): inactive; growth inhibition (GI) (OVCAR-8): inactive; inhibition of growth at 10 µM (SF-268): 6.15%; inhibition of growth at 10 µM (MCF7): 5.53%; inhibition of growth at 10 µM (SNB-19): 14.5%; growth inhibition (GI) (Hs-578T): inactive; inhibition of growth at 10 µM (NCI/ADR-RES): 6.88%
COc1ccc(Cc2nnc3sc(SCc4ccccc4)nn23)cc1	11.6%	3.43%	12.4%	14%	16.8%	27.6%	inactive	5.66%	19.7%	15.8%	11%	inactive	25.1%	20.6%	2.8%	8.58%	6%	12.9%	7.22%	6%	inhibition of growth at 10 µM (HCT-116; HCT-116, 48 h, read-out: GI): 1.27%; growth inhibition (GI) (HOP-62): inactive; growth inhibition (GI) (UACC-257): inactive; inhibition of growth at 10 µM (RPMI-8226): 2.01%; growth inhibition (GI) (Malme-3M): inactive; growth inhibition (GI) (SK-MEL-2): inactive; growth inhibition (GI) (SK-MEL-5): inactive; growth inhibition (GI) (HT-29): inactive; growth inhibition (GI) (OVCAR-3): inactive; growth inhibition (GI) (NCI-H322M): inactive; growth inhibition (GI) (UACC-62): inactive; inhibition of growth at 10 µM (SK-OV-3): 1.1%; growth inhibition (GI) (MDA-MB-468): inactive; inhibition of growth at 10 µM (786-0; 786-0, 48 h, read-out: GI): 6.46%; growth inhibition (GI) (OVCAR-8): inactive; inhibition of growth at 10 µM (SF-268): 2.02%; inhibition of growth at 10 µM (MCF7): 5.28%; inhibition of growth at 10 µM (SNB-19): 10.6%; growth inhibition (GI) (Hs-578T): inactive; inhibition of growth at 10 µM (NCI/ADR-RES): 3.11%
COc1ccc(Cc2nnc(SCC(=O)c3ccc(C)cc3)n2-c2ccccc2)cc1	9.02%	17.5%	7.62%	2.21%	19%	14.3%	inactive	7.83%	26%	2%	8.11%	inactive	5.01%	30.2%	4.09%	1.87%	4.22%	7.61%	7%	20.7%	growth inhibition (GI) (HCT-116): inactive; inhibition of growth at 10 µM (HOP-62): 6.7%; inhibition of growth at 10 µM (UACC-257): 7.67%; growth inhibition (GI) (RPMI-8226): inactive; inhibition of growth at 10 µM (Malme-3M): 5.45%; inhibition of growth at 10 µM (SK-MEL-2): 23%; inhibition of growth at 10 µM (SK-MEL-5): 3.36%; growth inhibition (GI) (HT-29): inactive; inhibition of growth at 10 µM (OVCAR-3; OVCAR-3, 48 h, read-out: GI): 4.05%; inhibition of growth at 10 µM (NCI-H322M; read-out: GI): 8.17%; inhibition of growth at 10 µM (UACC-62; UACC-62, 48 h, read-out: GI): 14%; inhibition of growth at 10 µM (SK-OV-3): 13.9%; inhibition of growth at 10 µM (MDA-MB-468): 19.3%; growth inhibition (GI) (786-0): inactive; inhibition of growth at 10 µM (OVCAR-8; OVCAR-8, 48 h, read-out: GI): 1.78%; inhibition of growth at 10 µM (SF-268): 3.62%; inhibition of growth at 10 µM (MCF7): 14.6%; inhibition of growth at 10 µM (SNB-19): 4.85%; growth inhibition (GI) (Hs-578T): inactive; inhibition of growth at 10 µM (NCI/ADR-RES): 16.6%
